These results are taken from ChEMBL document CHEMBL1132123, “The synthesis and biological activity of a series of 2,4-diaminopyrido[2,3-d]pyrimidine based antifolates as antineoplastic and antiarthritic agents” (Bioorg Med Chem Lett, 1999).

Broadly, the inhibition in vivo is the relative decrease from the control value, in per cent. The low end stands for a weak effect, the high end for a strong effect. By Ki is commonly meant a dissociation constant, usually derived from enzyme kinetics or from competition with a known ligand. What is called Vmax is the rate approached at saturating substrate. By Km is commonly meant the concentration of substrate that gives half-maximal velocity.

Data set [1] in a line: Vmax/Km value was determined.
Data set [2] relates to Rattus norvegicus. As to the kind of experiment: Compound evaluated for inhibition of rat paw swelling after ip administration at 0.30 mg/kg and expressed as net swelling in mL of displaced water in delayed phase. In kind it is functional. To be noted: dose 0.3 mg/kg; route intraperitoneal.
Data set [3] has as its system Rattus norvegicus. As to the kind of experiment: Compound evaluated for inhibition of rat paw swelling after ip administration at 0.30 mg/kg in delayed phase. The data set is classed as functional. To be noted: route intraperitoneal.
The target in data set [4] is T1, Thymidylate synthase (Homo sapiens, UniProt P04818). As to the kind of experiment: Inhibitory activity against recombinant human Thymidylate synthase enzyme.
T1 sequence (P04818 whole entry): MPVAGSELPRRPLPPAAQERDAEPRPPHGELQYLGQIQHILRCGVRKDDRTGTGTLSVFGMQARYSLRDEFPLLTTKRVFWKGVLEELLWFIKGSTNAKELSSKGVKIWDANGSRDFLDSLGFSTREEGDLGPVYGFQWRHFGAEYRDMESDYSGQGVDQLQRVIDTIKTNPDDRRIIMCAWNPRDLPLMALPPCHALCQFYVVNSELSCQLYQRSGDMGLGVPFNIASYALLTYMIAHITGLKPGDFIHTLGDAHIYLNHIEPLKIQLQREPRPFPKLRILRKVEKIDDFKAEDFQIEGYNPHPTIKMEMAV
In data set [5] the target is T2, Trifunctional purine biosynthetic protein adenosine-3 (Mus musculus, UniProt Q64737).
T2 sequence (Q64737 whole entry): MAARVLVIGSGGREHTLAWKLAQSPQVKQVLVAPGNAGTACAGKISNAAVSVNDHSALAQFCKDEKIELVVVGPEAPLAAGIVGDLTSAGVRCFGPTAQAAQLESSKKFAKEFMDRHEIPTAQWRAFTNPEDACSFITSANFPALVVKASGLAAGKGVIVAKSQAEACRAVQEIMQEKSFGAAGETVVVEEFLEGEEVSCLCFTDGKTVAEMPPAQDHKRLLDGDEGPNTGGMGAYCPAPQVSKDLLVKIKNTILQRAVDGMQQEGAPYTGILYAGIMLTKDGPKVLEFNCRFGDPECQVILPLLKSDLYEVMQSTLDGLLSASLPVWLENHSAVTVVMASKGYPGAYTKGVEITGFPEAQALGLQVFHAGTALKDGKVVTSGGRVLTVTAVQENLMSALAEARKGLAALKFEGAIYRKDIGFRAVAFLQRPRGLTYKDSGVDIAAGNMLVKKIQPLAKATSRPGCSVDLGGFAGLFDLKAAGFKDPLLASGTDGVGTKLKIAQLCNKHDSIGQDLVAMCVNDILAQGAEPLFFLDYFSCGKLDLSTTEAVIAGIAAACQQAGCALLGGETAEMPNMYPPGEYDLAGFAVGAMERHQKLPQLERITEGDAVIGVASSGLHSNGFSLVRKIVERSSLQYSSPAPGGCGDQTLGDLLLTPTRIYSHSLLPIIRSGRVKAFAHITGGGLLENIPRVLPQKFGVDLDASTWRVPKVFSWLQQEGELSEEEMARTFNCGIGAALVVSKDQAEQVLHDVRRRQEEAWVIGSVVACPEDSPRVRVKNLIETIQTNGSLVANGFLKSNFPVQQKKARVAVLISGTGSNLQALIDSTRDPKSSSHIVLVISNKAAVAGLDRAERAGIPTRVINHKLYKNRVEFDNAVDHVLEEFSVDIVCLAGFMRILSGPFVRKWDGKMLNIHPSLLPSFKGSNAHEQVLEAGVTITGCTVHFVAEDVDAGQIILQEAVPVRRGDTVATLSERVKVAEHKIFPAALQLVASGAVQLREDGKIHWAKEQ
As to the kind of experiment: Inhibitory activity against murine glycinamide ribonucleotide formyltransferase (GARFT) enzyme.

A further data set concerns the target T3, Dihydrofolate reductase (Homo sapiens, UniProt P00374).
T3 sequence (P00374 whole entry): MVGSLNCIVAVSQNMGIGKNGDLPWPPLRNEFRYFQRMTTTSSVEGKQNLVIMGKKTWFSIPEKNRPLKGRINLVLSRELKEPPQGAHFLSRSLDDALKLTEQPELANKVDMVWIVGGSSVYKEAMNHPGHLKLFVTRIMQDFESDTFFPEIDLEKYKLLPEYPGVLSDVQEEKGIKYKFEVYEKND
Description: Inhibitory activity against recombinant human dihydrofolate reductase (DHFR).

The subject of data set [6] is Rattus norvegicus. Description: Compound evaluated for inhibition of rat paw swelling after ip administration at 0.125 mg/kg in delayed phase. In kind it is functional. To be noted: route intraperitoneal.
Data set [7] deals with Rattus norvegicus. Description: Compound evaluated for inhibition of rat paw swelling after ip administration at 0.125 mg/kg and expressed as net swelling in mL of displaced water in acute phase. In kind it is functional. To be noted: route intraperitoneal.
The subject of data set [8] is Rattus norvegicus. As to the kind of experiment: Compound evaluated for inhibition of rat paw swelling after ip administration at 0.06 mg/kg in delayed phase. In kind it is functional. To be noted: route intraperitoneal.
The target in data set [9] is T1, Thymidylate synthase. As to the kind of experiment: Inhibitory activity against recombinant human Thymidylate synthase.
Data set [10] concerns Rattus norvegicus. Description: Compound evaluated for inhibition of rat paw swelling after ip administration at 0.06 mg/kg and expressed as net swelling in mL of displaced water in acute phase. The data set is classed as functional. To be noted: route intraperitoneal.
The subject of data set [11] is Rattus norvegicus. As to the kind of experiment: Compound evaluated for inhibition of rat paw swelling after ip administration at 0.125 mg/kg in acute phase. The data set is classed as functional. Conditions: route intraperitoneal.
The test system of data set [12] is Rattus norvegicus. As to the kind of experiment: Compound evaluated for inhibition of rat paw swelling after ip administration at 0.06 mg/kg and expressed as net swelling in mL of displaced water in delayed phase. In kind it is functional. To be noted: route intraperitoneal.
Data set [13] deals with Rattus norvegicus. As to the kind of experiment: Compound evaluated for inhibition of rat paw swelling after ip administration at 0.125 mg/kg and expressed as net swelling in mL of displaced water in delayed phase. The data set is classed as functional. To be noted: route intraperitoneal.
The subject of data set [14] is Rattus norvegicus. Description: Compound evaluated for inhibition of rat paw swelling after ip administration at 0.06 mg/kg in acute phase. Conditions: route intraperitoneal. The data set is classed as functional.
Substrate in data set [15]: C[C@](CCC(=O)O)(NC(=O)c1ccc(CCC2CNc3nc(N)nc(N)c3C2)o1)C(=O)O
As to the kind of experiment: (§1) Maximum rate of metabolism by hog liver folyl-poly-glutamate synthetase (FPGS) was determined. To be noted: Sus scrofa.

Substrate in data set [16]: C[C@](CCC(=O)O)(NC(=O)c1ccc(CCC2CNc3nc(N)nc(N)c3C2)cc1)C(=O)O
Described as §1. To be noted: Sus scrofa.

Substrate in data set [17]: Nc1nc(O)c2c(n1)NCC(CCc1ccc(C(=O)NC(CCC(=O)O)C(=O)O)cc1)C2
The data set is described as §1. To be noted: Sus scrofa.

Substrate in data set [18]: C[C@](CCC(=O)O)(NC(=O)c1ccc(CCC2CNc3nc(N)nc(N)c3C2)s1)C(=O)O
The data set is described as §1. Conditions: Sus scrofa.

Substrate in data set [19]: C[C@](CCC(=O)O)(NC(=O)c1ccc(CCC2CNc3nc(N)nc(N)c3C2)o1)C(=O)O
As to the kind of experiment: (§2) Michaelis-Menten constant for hog liver folyl-poly-glutamate synthetase (FPGS). To be noted: Sus scrofa.

Substrate in data set [20]: C[C@](CCC(=O)O)(NC(=O)c1ccc(CCC2CNc3nc(N)nc(N)c3C2)cc1)C(=O)O
The description is as §2. Conditions: Sus scrofa.

Substrate in data set [21]: Nc1nc(O)c2c(n1)NCC(CCc1ccc(C(=O)NC(CCC(=O)O)C(=O)O)cc1)C2
The data set is described as §2. Conditions: Sus scrofa.

Substrate in data set [22]: C[C@](CCC(=O)O)(NC(=O)c1ccc(CCC2CNc3nc(N)nc(N)c3C2)s1)C(=O)O
Described as §2. To be noted: Sus scrofa.

For the molecule `CN(Cc1cnc2nc(N)nc(N)c2n1)c1ccc(C(=O)N[C@@H](CCC(=O)O)C(=O)O)cc1`, in [1], the Vmax / Km was determined as 4.3.
Turning to `C[C@]12CCC(=O)C=C1CCC1[C@@H]2[C@@H](O)C[C@@]2(C)[C@H]1CC[C@]2(O)C(=O)CO` (single isomer, unassigned) [HYDROCORTISONE], the “Net Swelling” value in the data set on Rattus norvegicus [2] is recorded as 0.09. For the same molecule, testing at 0.3 mg/kg in the data set with Rattus norvegicus [3] gave an inhibition in vivo of 36%.
With `Nc1nc(O)c2c(n1)NCC(CCc1ccc(C(=O)NC(CCC(=O)O)C(=O)O)cc1)C2` (configuration not stated), the Vmax / Km in [1] stood at 60.
`C[C@](CCC(=O)O)(NC(=O)c1ccc(CCC2CNc3nc(N)nc(N)c3C2)o1)C(=O)O` (some centres not stated): the values for the Ki (at Thymidylate synthase [4]; in data set [5]; on Dihydrofolate reductase) were over 5000 nM, 710 nM and 9.87 nM, respectively. Moreover, in data set [1], the Vmax / Km was determined as 9.2.
On to `C[C@](CCC(=O)O)(NC(=O)c1ccc(CCC2CNc3nc(N)nc(N)c3C2)s1)C(=O)O` (some centres not stated), for which the values for the Ki (on Thymidylate synthase [4]; in data set [5]; on Dihydrofolate reductase) were over 5000 nM, 9200 nM and 0.69 nM, respectively. For the same molecule, the Vmax / Km in data set [1] turned out to be 98.
Consider `C[C@](CCC(=O)O)(NC(=O)c1ccc(CCC2CNc3nc(N)nc(N)c3C2)cc1)C(=O)O` (some centres not stated), for which the inhibition in vivo at 0.125 mg/kg with Rattus norvegicus [6] turned out to be 14%; in the data set on Rattus norvegicus [11], 35%. Also, the values for the Ki (in data set [5]; on Thymidylate synthase [9]; on Dihydrofolate reductase) were 56000 nM, over 5000 nM and 0.29 nM, respectively. For the same molecule, the “Net Swelling” value in the data set with Rattus norvegicus [7] amounted to 0.55; with Rattus norvegicus [10], 0.82; in the data set with Rattus norvegicus [12], 0.15; in the data set with Rattus norvegicus [13], 0.12. The inhibition in vivo at 0.06 mg/kg in the data set on Rattus norvegicus [8] and in the data set on Rattus norvegicus [14] was 0% each time. Moreover, in data set [1], the Vmax / Km turned out to be 40.

B1: Folylpolyglutamate synthase, mitochondrial (Homo sapiens), Q05932 (protein)
chain: MSRARSHLRAALFLAAASARGITTQVAARRGLSAWPVPQEPSMEYQDAVRMLNTLQTNAGYLEQVKRQRGDPQTQLEAMELYLARSGLQVEDLDRLNIIHVTGTKGKGSTCAFTECILRSYGLKTGFFSSPHLVQVRERIRINGQPISPELFTKYFWRLYHRLEETKDGSCVSMPPYFRFLTLMAFHVFLQEKVDLAVVEVGIGGAYDCTNIIRKPVVCGVSSLGIDHTSLLGDTVEKIAWQKGGIFKQGVPAFTVLQPEGPLAVLRDRAQQISCPLYLCPMLEALEEGGPPLTLGLEGEHQRSNAALALQLAHCWLQRQDRHGAGEPKASRPGLLWQLPLAPVFQPTSHMRLGLRNTEWPGRTQVLRRGPLTWYLDGAHTASSAQACVRWFRQALQGRERPSGGPEVRVLLFNATGDRDPAALLKLLQPCQFDYAVFCPNLTEVSSTGNADQQNFTVTLDQVLLRCLEHQQHWNHLDEEQASPDLWSAPSPEPGGSASLLLAPHPPHTCSASSLVFSCISHALQWISQGRDPIFQPPSPPKGLLTHPVAHSGASILREAAAIHVLVTGSLHLVGGVLKLLEPALSQ
Take B1: the Vmax worked out at 696 nM/h/mg in data set [15], 1190 nM/h/mg in [16], 977 nM/h/mg in data set [17] and 1140 nM/h/mg in [18]. Moreover, the Km in [19] is 75.3 µM; in data set [20] it was 28.2 µM; in [21] it was 16.4 µM; in data set [22], 11.6 µM.
